The target of experiment [1] is SUV420H1 enzyme (Homo sapiens, UniProt Q4FZB7). In words: TR-FRET SAH SUV420H1 enzyme inhibition assay. Type of experiment: biochemical. As to conditions: Histone Peptide H4(8-30)me1 and SAM, TR-FRET detection of SAH, read-out: TR-FRET SAH_SUV420H1 IC50. The protocol: Test compounds were dispensed by a Labcyte Echo in 384-well low volume assay plates with 3-fold serial dilutions from 50 μM to 0.00075 μM. 5 μL of SUV420H1 enzyme (Abbvie) at 90 nM was added to all wells except for the no enzyme control wells and incubated for 30 minutes at room temperature before 5 μL of Histone Peptide H4(8-30)me1 (Anaspec) at 5 μM and SAM at 4 μM was added to all wells. The plates were incubated in a humidified chamber overnight at room temp and then 10 μL of the detection reagent that contained RIPA buffer (50 mM Tris-HCl, pH 8.0, 150 mM sodium chloride, 1.0% Igepal CA-630 (NP-40), 0.5% sodium deoxycholate and 0.1% sodium dodecyl sulfate) (Sigma) with 2 nM of Terbium chelate anti S-adenosyl-L-homocysteine (SAH) (Abbvie) antibody and Oregon Green labeled SAH at 4 nM was added. The plates were further incubated for 4 hours at room temperature. The plates were read in a Perkin Elmer Envision using a TR-FRET protocol with Excitation set at 335 nm and Emission at 520 and 495 nm. To generate dose response curves the data is normalized to percent inhibition by setting the average of the plus and minus enzyme control wells to 0% and 100% inhibition respectively. The ICso values for the compounds are generated by fitting the normalized data with Accelrys Assay Explorer 3.3 to a sigmoidal curve model using […], Y=(100*x^n)/(K^n+x^n), where Y is the measured response, x is the compound concentration, n is the Hill Slope and K is the IC50 and the lower and higher asymptotes are constrained to 0 and 100 respectively.
Background: TR-FRET usually uses a lanthanide donor and a delayed reading to cut background.

The subject of experiment [2] is H4K20me3 in PC-3 cells (SUV420H1 cellular activity). Nature of the experiment: H4K20me3 Cellular PD Assay (high content microscopy). Type of experiment: cell-based. As to conditions: treated for 72 hours, H4K20me3 immunofluorescence, read-out: H4K20me3 Inhibition EC50. As for the experimental part: A high content microscopy-based PD assay was used to analyze the decrease of H4K20me3 upon inhibition of SUV420H1 cellular activity. PC-3 cells were plated at 3,000 cells per well in black Collagen I coated 96-well plates (Perkin Elmer, #6005810) in RPMI supplemented with 10% heat inactivated FBS, 1% sodium pyruvate and 1% non-essential amino acids in a 37° C. tissue culture incubator. At 24 hours post seeding, cells were treated with the indicated compounds for 72 hours in an 8-point dose response using half log dilutions from […] and then fixed in 2% formaldhyde (Polysciences, Inc., #04018) for 10 minutes at room temperature. Cells were washed in PBS and permeablized in 0.1% Triton X-100 for 10 minutes at room temperature. After blocking in 1% BSA (Sigma, #A7030) in PBS for 1 hour at room temperature, a mouse monoclonal antibody directed toward H4K20me3 (Santa Cruz, #sc-134216) in antibody dilution buffer (0.3% BSA in PBS) was added for 16 hours at 4° C. Cells were then washed 3 times in PBS and an Alexa Fluor 555 conjugated goat anti-mouse (Life Technologies #A-21424) secondary antibody was added for 1 hour at room temperature. Hoechst 33342 diluted 1:10000 (Life Technologies #H3570) was also added during the secondary antibody incubation. Cells were washed 3 times in PBS and stored in PBS at 4° C. Fluorescent images were acquired within 24 hours on a Cell Insight (Thermo Fisher Scientific) using the Target Activation algorithm. Objects were identified via nuclear Hoescht staining, and changes in average mean intensity in the fluorescent signals of H4K20me3 were quantified using the HCS View software platform (Thermo Fisher Scientific).

Read-outs that look alike come from different tables or passages of the source. Where only a bound is given, the exact number is not on record here.

SUV420H1 enzyme, sequence (Q4FZB7 whole entry): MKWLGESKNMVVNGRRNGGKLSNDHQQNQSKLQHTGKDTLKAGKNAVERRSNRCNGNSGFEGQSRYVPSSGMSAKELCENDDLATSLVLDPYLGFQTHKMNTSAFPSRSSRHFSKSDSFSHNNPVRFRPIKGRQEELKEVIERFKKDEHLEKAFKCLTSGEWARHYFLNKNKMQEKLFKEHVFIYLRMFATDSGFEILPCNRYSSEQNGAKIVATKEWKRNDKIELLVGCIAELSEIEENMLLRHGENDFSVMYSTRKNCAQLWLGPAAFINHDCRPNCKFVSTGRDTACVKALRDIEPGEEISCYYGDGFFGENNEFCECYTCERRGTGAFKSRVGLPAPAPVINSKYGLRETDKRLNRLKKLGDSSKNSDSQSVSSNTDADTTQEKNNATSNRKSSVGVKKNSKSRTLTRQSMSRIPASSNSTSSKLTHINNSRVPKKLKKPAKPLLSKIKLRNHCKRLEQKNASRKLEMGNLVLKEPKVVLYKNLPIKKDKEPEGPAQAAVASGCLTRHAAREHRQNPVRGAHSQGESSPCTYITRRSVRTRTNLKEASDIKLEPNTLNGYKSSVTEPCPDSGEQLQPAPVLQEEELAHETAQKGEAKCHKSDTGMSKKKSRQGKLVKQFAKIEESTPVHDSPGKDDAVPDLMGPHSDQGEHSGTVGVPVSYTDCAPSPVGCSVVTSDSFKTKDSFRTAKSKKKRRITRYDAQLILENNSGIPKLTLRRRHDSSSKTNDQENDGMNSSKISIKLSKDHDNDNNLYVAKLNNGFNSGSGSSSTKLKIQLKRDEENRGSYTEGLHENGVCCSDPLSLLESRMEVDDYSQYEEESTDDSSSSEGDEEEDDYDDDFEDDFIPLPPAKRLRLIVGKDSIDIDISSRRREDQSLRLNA

As usually defined, the IC50 is the concentration that gives 50% inhibition. In general, EC50 refers to the concentration needed to bring the measured effect to its halfway point. With `CN1CCN(C(=O)Cn2cc(-c3nnc(NC4CCCC4)c4cc(Cl)c(Cl)cc34)cn2)CC1` [Example 61, 2-{4-[6,7-dichloro-4-(cyclopentylamino)phthalazin-1-yl]-1H-pyrazol-1-yl}-1-(4-methylpiperazin-1-yl)ethanone], the IC50 in experiment [1] came to 190 nM. Further, in experiment [2] (Homo sapiens), the EC50 stood at 4990 nM.

On to `COC(=O)c1nnc(NC2CCCC2)c2cc(Cl)c(Cl)cc12` [Example 37, methyl 6,7-dichloro-4-(cyclopentylamino)phthalazine-1-carboxylate], for which the IC50 in experiment [1] was found to be 90.3 nM. The EC50 in experiment [2] (Homo sapiens) stood at 1120 nM.

For the compound `Clc1cc2c(NC3CCCC3)nnc(-c3ccncc3)c2cc1Cl` [Example 6, 6,7-dichloro-N-cyclopentyl-4-(pyridin-4-yl)phthalazin-1-amine], the IC50 in experiment [1] came out at 38.6 nM. In addition, the EC50 in experiment [2] (Homo sapiens) is 522 nM.

Turning to `Clc1cc2c(NC3CCCC3)nnc(-c3ccnc(N4CCNCC4)c3)c2cc1Cl` [Example 18, 6,7-dichloro-N-cyclopentyl-4-[2-(piperazin-1-yl)pyridin-4-yl]phthalazin-1-amine], the IC50 in experiment [1] stood at 525 nM. The EC50 in experiment [2] (Homo sapiens) is 1050 nM. The corresponding values for `Cn1ccc(-c2nnc(NC3CCCC3)c3cc(Cl)c(Cl)cc23)n1` [Example 4, 6,7-dichloro-N-cyclopentyl-4-(1-methyl-1H-pyrazol-3-yl)phthalazin-1-amine] are 94.2 nM and 1160 nM.

For `CC(C)(C)OC(=O)Cn1cc(-c2nnc(NC3CCCC3)c3cc(Cl)c(Cl)cc23)cn1` [Example 43, tert-butyl {4-[6,7-dichloro-4-(cyclopentylamino)phthalazin-1-yl]-1H-pyrazol-1-yl}acetate], in experiment [1], the IC50 is 174 nM. Moreover, in experiment [2] (Homo sapiens), the concentration giving a half-maximal response (EC50) was 7910 nM. The corresponding values for `OC1CCN(c2cc(-c3nnc(NC4CCCC4)c4cc(Cl)c(Cl)cc34)ccn2)CC1` [Example 29, 1-{4-[6,7-dichloro-4-(cyclopentylamino)phthalazin-1-yl]pyridin-2-yl}piperidin-4-ol] are 470 nM and 3080 nM. With `Cn1cc(C(=O)N2CC=C(c3nnc(NC4CCCC4)c4cc(Cl)c(Cl)cc34)CC2)cn1` [Example 78, {4-[6,7-dichloro-4-(cyclopentylamino)phthalazin-1-yl]-3,6-dihydropyridin-1(2H)-yl}(1-methyl-1H-pyrazol-4-yl)methanone], the EC50 in experiment [2] (Homo sapiens) is 13100 nM. `Clc1cc2c(NC3CCCC3)nnc(-c3ccsc3)c2cc1Cl` [Example 7, 6,7-dichloro-N-cyclopentyl-4-(thiophen-3-yl)phthalazin-1-amine]: the IC50 in experiment [1] is 75.3 nM. In experiment [2] (Homo sapiens), the EC50 is 1510 nM. The corresponding values for `OCCNc1ccc(-c2nnc(NC3CCCC3)c3cc(Cl)c(Cl)cc23)cn1` [Example 30, 2-({5-[6,7-dichloro-4-(cyclopentylamino)phthalazin-1-yl]pyridin-2-yl}amino)ethanol] are 1050 nM and 465 nM.

As for `CC(=O)N1CCN(C(=O)Cn2cc(-c3nnc(NC4CCCC4)c4cc(Cl)c(Cl)cc34)cn2)CC1` [Example 62, 1-(4-acetylpiperazin-1-yl)-2-{4-[6,7-dichloro-4-(cyclopentylamino)phthalazin-1-yl]-1H-pyrazol-1-yl}ethanone], the IC50 in experiment [1] is 333 nM. In addition, the EC50 in experiment [2] (Homo sapiens) was 10500 nM. The corresponding values for `Cn1cc(NC(=O)c2nnc(NC3CCCC3)c3cc(Cl)c(Cl)cc23)cn1` [Example 54, 6,7-dichloro-4-(cyclopentylamino)-N-(1-methyl-1H-pyrazol-4-yl)phthalazine-1-carboxamide] are 147 nM and more than 20000 nM. The corresponding values for `NC(=O)c1nnc(NC2CCCC2)c2cc(Cl)c(Cl)cc12` [Example 42, 6,7-dichloro-4-(cyclopentylamino)phthalazine-1-carboxamide] are 127 nM and 2830 nM. The corresponding values for `CN(C)c1ccc(-c2nnc(NC3CCCC3)c3cc(Cl)c(Cl)cc23)cn1` [Example 20, 6,7-dichloro-N-cyclopentyl-4-[6-(dimethylamino)pyridin-3-yl]phthalazin-1-amine] are 415 nM and 9540 nM.

Consider “1-{4-[6,7-dichloro-4-(cyclopentylamino)phthalazin-1-yl]pyridin-2-yl}pyrrolidin-3-ol [Example 36]”, for which the IC50 in experiment [1] came to 173 nM. In addition, the EC50 in experiment [2] was found to be 1670 nM. Consider `O=C(NCCO)c1nnc(NC2CCCC2)c2cc(Cl)c(Cl)cc12` [Example 66, 6,7-dichloro-4-(cyclopentylamino)-N-(2-hydroxyethyl)phthalazine-1-carboxamide], for which the half-maximal inhibitory concentration (IC50) in experiment [1] is 140 nM. For the same compound, in experiment [2] (Homo sapiens), the half-maximal effective concentration (EC50) came to 2490 nM. The corresponding values for `CN(CCO)C(=O)Cn1cc(-c2nnc(NC3CCCC3)c3cc(Cl)c(Cl)cc23)cn1` [Example 57, 2-{4-[6,7-dichloro-4-(cyclopentylamino)phthalazin-1-yl]-1H-pyrazol-1-yl}-N-(2-hydroxyethyl)-N-methylacetamide] are 204 nM and 10700 nM. The corresponding values for `CN1CCN(c2nnc(NC3CCCC3)c3cc(Cl)c(Cl)cc23)CC1` [Example 9, 6,7-dichloro-N-cyclopentyl-4-(4-methylpiperazin-1-yl)phthalazin-1-amine] are 373 nM and 3430 nM. The corresponding values for `O=C(Cn1cc(-c2nnc(NC3CCCC3)c3cc(Cl)c(Cl)cc23)cn1)NCCO` [Example 56, 2-{4-[6,7-dichloro-4-(cyclopentylamino)phthalazin-1-yl]-1H-pyrazol-1-yl}-N-(2-hydroxyethyl)acetamide] are 165 nM and 6730 nM. `Fc1ccc(-c2nnc(NC3CCCC3)c3cc(Cl)c(Cl)cc23)cn1` [Example 19, 6,7-dichloro-N-cyclopentyl-4-(6-fluoropyridin-3-yl)phthalazin-1-amine]: the IC50 in experiment [1] is 163 nM. Moreover, the EC50 in experiment [2] (Homo sapiens) was 1210 nM. The corresponding values for `Clc1cc2c(NC3CCCC3)nnc(N3CCCCC3)c2cc1Cl` [Example 8, 6,7-dichloro-N-cyclopentyl-4-(piperidin-1-yl)phthalazin-1-amine] are 87.1 nM and 2920 nM. On to `Cn1cc(-c2nnc(NC3CCCC3)c3cc(Cl)c(Cl)cc23)cn1` [Example 5, 6,7-dichloro-N-cyclopentyl-4-(1-methyl-1H-pyrazol-4-yl)phthalazin-1-amine], for which the IC50 in experiment [1] turned out to be 111 nM. Moreover, the EC50 in experiment [2] (Homo sapiens) came to 505 nM. The corresponding values for `CN(CCO)c1ccc(-c2nnc(NC3CCCC3)c3cc(Cl)c(Cl)cc23)cn1` [Example 26, 2-{[5-[6,7-dichloro-4-(cyclopentylamino)phthalazin-1-yl]pyridin-2-yl}(methyl)amino]ethanol] are 389 nM and 4500 nM. The corresponding values for `NC1CCN(c2cc(-c3nnc(NC4CCCC4)c4cc(Cl)c(Cl)cc34)ccn2)C1` (centres unmarked) [Example 40, 4-[2-(3-aminopyrrolidin-1-yl)pyridin-4-yl]-6,7-dichloro-N-cyclopentylphthalazin-1-amine] are 229 nM and 532 nM. The corresponding values for `Clc1cc2c(Cl)nnc(NC3CCCC3)c2cc1Cl` [Example 1, 4,6,7-trichloro-N-cyclopentylphthalazin-1-amine] are 361 nM and 11400 nM. Take `O=C(C1CC1)N1CC=C(c2nnc(NC3CCCC3)c3cc(Cl)c(Cl)cc23)CC1` [Example 70, cyclopropyl {4-[6,7-dichloro-4-(cyclopentylamino)phthalazin-1-yl]-3,6-dihydropyridin-1(2H)-yl}methanone]: the EC50 in experiment [2] (Homo sapiens) is 15600 nM.

Source of the values: US20180093956A1, “SUBSTITUTED PHTHALAZINES” (AbbVie Inc., priority 2015, published 2018).
